# Values of other authors as cited in patent US10993951B2, “Fosfomycin formulation for parenteral administration” (priority 2016, dated 2021).
# Where a name gives a salt, the structure may show the parent alone.
# Settings: cited from earlier work
smiles,measurement,value
"C[C@@H]1O[C@@H]1P(=O)(O)O [Fosfomycin disodium salt, fosfomycin disodium salt]",solubility in water,highly soluble
